Source: patent US20030225273A1, “Thiopyrimidine and isothiazolopyrimidine kinase inhibitors” (priority 2002, published 2003)

Row | SMILES | melting point [°C]
1 | CC(C)c1sc2ncnc(N)c2c1-c1ccc(NC(=O)c2ccccc2)cc1 [Example 8, N-[4-(4-amino-6-isopropylthieno[2,3-d]pyrimidin-5-yl)phenyl]benzamide] | > 250
2 | Cc1ccc(NC(=O)Nc2ccc(-c3c(Cc4ccccc4)sc4ncnc(N)c34)cc2)cc1 [Example 9, N-[4-(4-amino-6-benzylthieno[2,3-d]pyrimidin-5-yl)phenyl]-N′-(4-methylphenyl)urea] | 169 to 173
3 | Nc1ncnc2sc(Cc3ccccc3)c(-c3ccc(NS(=O)(=O)c4ccccc4)cc3)c12 [Example 13, N-[4-(4-amino-6-benzylthieno[2,3-d]pyrimidin-5-yl)phenyl]benzenesulfonamide] | 100 to 105
4 | Cc1ccccc1NC(=O)Nc1ccc(-c2c(CCO)sc3ncnc(N)c23)cc1 [Example 107, N-{4-[4-amino-6-(2-hydroxyethyl)thieno[2,3-d]pyrimidin-5-yl]phenyl}-N′-(2-methylphenyl)urea] | 159 to 162
5 | COCCc1sc2ncnc(N)c2c1-c1ccc(NC(=O)Nc2ccc(C)cc2)cc1 [Example 110, N-{4-[4-amino-6-(2-methoxyethyl)thieno[2,3-d]pyrimidin-5-yl]phenyl}-N′-(4-methylphenyl)urea] | 128 to 132
6 | COCCc1sc2ncnc(N)c2c1-c1ccc(NS(=O)(=O)c2ccccc2)cc1 [Example 111, N-{4-[4-amino-6-(2-methoxyethyl)thieno[2,3-d]pyrimidin-5-yl]phenyl}benzenesulfonamide] | 206 to 208
7 | COCCc1sc2ncnc(N)c2c1-c1ccc(NC(=O)Cc2cccc(C)c2)cc1 [Example 112, N-{4-[4-amino-6-(2-methoxyethyl)thieno[2,3-d]pyrimidin-5-yl]phenyl}-2-(3-methylphenyl)acetamide] | 200 to 202
8 | COCCc1sc2ncnc(N)c2c1-c1ccc(NC(=O)c2ccccc2)cc1 [Example 113, N-{4-[4-amino-6-(2-methoxyethyl)thieno[2,3-d]pyrimidin-5-yl]phenyl}benzamide] | 200 to 202
9 | Nc1ncnc2sc(Cc3cccnc3)c(-c3ccc(NC(=O)Nc4cccc(Cl)c4)cc3)c12 [Example 117, N-{4-[4-amino-6-(pyridin-3-ylmethyl)thieno[2,3-d]pyrimidin-5-yl]phenyl}-N′-(3-chlorophenyl)urea] | 169 to 172
10 | COCCc1sc2ncnc(N)c2c1-c1ccc(N(C(N)=O)c2ccccc2C)cc1 [Example 137, N-{4-[4-amino-6-(2-methoxyethyl)thieno[2,3-d]pyrimidin-5-yl]phenyl}-N-(2-methylphenyl)urea] | 217 to 219
11 | NC(=O)N(c1ccc(-c2c(CCO)sc3ncnc(N)c23)cc1)c1cccc(C(F)(F)F)c1 [Example 139, N-{4-[4-amino-6-(2-hydroxyethyl)thieno[2,3-d]pyrimidin-5-yl]phenyl}-N-[3-(trifluoromethyl)phenyl]urea] | 155 to 158
12 | COCCc1sc2ncnc(N)c2c1-c1ccc(NC(=O)Nc2cc(C(F)(F)F)ccc2F)cc1 [Example 140, N-{4-[4-amino-6-(2-methoxyethyl)thieno[2,3-d]pyrimidin-5-yl]phenyl}-N′-[2-fluoro-5-(trifluoromethyl)phenyl]urea] | 209 to 211
13 | Nc1ncnc2sc(Cc3ccncc3)c(-c3ccc(NC(=O)Nc4cccc(C(F)(F)F)c4)cc3)c12 [Example 142, N-{4-[4-amino-6-(pyridin-4-ylmethyl)thieno[2,3-d]pyrimidin-5-yl]phenyl}-N′-[3-(trifluoromethyl)phenyl]urea] | 162 to 166
14 | Cc1cccc(CC(=O)Nc2ccc(-c3c(CCO)sc4ncnc(N)c34)cc2)c1 [Example 350, N-{4-[4-amino-6-(2-hydroxyethyl)thieno[2,3-d]pyrimidin-5-yl]phenyl}-2-(3-methylphenyl)acetamide] | 142 to 144
